{"source": "ChEMBL document CHEMBL1914384", "about": "“Design, synthesis, and structure-activity relationship studies of highly potent novel benzoxazinyl-oxazolidinone antibacterial agents” (J Med Chem, 2011)", "key": {"Streptococcus pneumoniae [1]": {"test_system": "Streptococcus pneumoniae", "assay": "Antibacterial activity against penicillin-resistant Streptococcus pneumoniae after 16 hrs by agar dilution method relative to Linezolid", "type": "functional"}, "Staphylococcus aureus [2]": {"test_system": "Staphylococcus aureus", "assay": "Antibacterial activity against Linezolid-resistant Staphylococcus aureus after 16 hrs by agar dilution method relative to Linezolid", "type": "functional"}, "[3]": {"assay": "Half life in Sprague-Dawley rat at 10 mg/kg, iv by LC-MS analysis", "type": "ADME, organism-based", "design": "dose 10 mg/kg, route intravenous", "conditions": "in vivo"}, "Staphylococcus aureus [4]": {"test_system": "Staphylococcus aureus", "assay": "Antibacterial activity against linezolid-resistant Staphylococcus aureus after 16 hrs by agar dilution method", "type": "functional"}, "[5]": {"assay": "AUC (0 to infinity) in Sprague-Dawley rat at 10 mg/kg, iv by LC-MS analysis", "type": "ADME, organism-based", "design": "time infinity, dose 10 mg/kg, route intravenous", "conditions": "plasma"}, "[6]": {"test_system": "Staphylococcus epidermidis", "assay": "Antibacterial activity against linezolid-resistant Staphylococcus epidermidis after 16 hrs by agar dilution method", "type": "functional"}, "Enterococcus faecalis [7]": {"test_system": "Enterococcus faecalis", "assay": "Antibacterial activity against Enterococcus faecalis after 16 hrs by agar dilution method", "type": "functional"}, "[8]": {"assay": "Tmax in Sprague-Dawley rat at 50 mg/kg, po by LC-MS analysis", "type": "ADME, organism-based", "design": "dose 50 mg/kg, route oral", "conditions": "in vivo"}, "Staphylococcus aureus [9]": {"test_system": "Staphylococcus aureus", "assay": "Antibacterial activity against Staphylococcus aureus ATCC 19636 infected in mouse systemic infection model administered orally 1 hour after infection measured 48 hrs of post-treatment", "type": "functional", "conditions": "ATCC 19636, po"}, "[10]": {"test_system": "Staphylococcus epidermidis", "assay": "Antibacterial activity against methicillin-resistant Staphylococcus epidermidis after 16 hrs by agar dilution method relative to Linezolid", "type": "functional"}, "Staphylococcus aureus [11]": {"test_system": "Staphylococcus aureus", "assay": "Antibacterial activity against Staphylococcus aureus ATCC 29213 after 16 hrs by agar dilution method relative to Linezolid", "type": "functional"}, "[12]": {"test_system": "Staphylococcus epidermidis", "assay": "Antibacterial activity against Linezolid-resistant Staphylococcus epidermidis after 16 hrs by agar dilution method relative to Linezolid", "type": "functional"}, "[13]": {"assay": "Clearance in Sprague-Dawley rat at 10 mg/kg, iv by LC-MS analysis", "type": "ADME, organism-based", "design": "dose 10 mg/kg, route intravenous", "conditions": "in vivo"}, "[14]": {"test_system": "Staphylococcus epidermidis", "assay": "Antibacterial activity against methicillin-resistant Staphylococcus epidermidis after 16 hrs by agar dilution method", "type": "functional"}, "Staphylococcus aureus [15]": {"test_system": "Staphylococcus aureus", "assay": "Antibacterial activity against Staphylococcus aureus ATCC 29213 after 16 hrs by agar dilution method", "type": "functional", "conditions": "ATCC 29213, 16 h"}, "Streptococcus pneumoniae [16]": {"test_system": "Streptococcus pneumoniae", "assay": "Antibacterial activity against penicillin-resistant Streptococcus pneumoniae after 16 hrs by agar dilution method", "type": "functional"}, "Staphylococcus aureus [17]": {"test_system": "Staphylococcus aureus", "assay": "Antibacterial activity against methicillin-resistant Staphylococcus aureus after 16 hrs by agar dilution method", "type": "functional"}, "Enterococcus faecalis [18]": {"test_system": "Enterococcus faecalis", "assay": "Antibacterial activity against linezolid-resistant Enterococcus faecalis after 16 hrs by agar dilution method", "type": "functional"}, "[19]": {"assay": "Cmax in Sprague-Dawley rat at 50 mg/kg, po by LC-MS analysis", "type": "ADME, organism-based", "design": "dose 50 mg/kg, route oral", "conditions": "in vivo"}, "[20]": {"assay": "AUC (0 to infinity) in Sprague-Dawley rat at 50 mg/kg, po by LC-MS analysis", "type": "ADME, organism-based", "design": "time infinity, dose 50 mg/kg, route oral", "conditions": "plasma"}, "Enterococcus faecalis [21]": {"test_system": "Enterococcus faecalis", "assay": "Antibacterial activity against Enterococcus faecalis after 16 hrs by agar dilution method relative to Linezolid", "type": "functional"}, "Staphylococcus aureus [22]": {"test_system": "Staphylococcus aureus", "assay": "Antibacterial activity against methicillin-resistant Staphylococcus aureus ATCC 33591 infected in NSA mouse neutropenic model administered orally 1 hour after infection measured 48 hrs post-treatment", "type": "functional", "conditions": "ATCC 33591, po"}, "Enterococcus faecium [23]": {"test_system": "Enterococcus faecium", "assay": "Antibacterial activity against linezolid-resistant Enterococcus faecium after 16 hrs by agar dilution method", "type": "functional"}, "Enterococcus faecium [24]": {"test_system": "Enterococcus faecium", "assay": "Antibacterial activity against Linezolid-resistant Enterococcus faecium after 16 hrs by agar dilution method relative to Linezolid", "type": "functional"}, "[25]": {"assay": "Oral bioavailability in Sprague-Dawley rat at 50 mg/kg by LC-MS analysis", "type": "ADME, organism-based", "conditions": "in vivo"}, "Enterococcus faecalis [26]": {"test_system": "Enterococcus faecalis", "assay": "Antibacterial activity against Linezolid-resistant Enterococcus faecalis after 16 hrs by agar dilution method relative to Linezolid", "type": "functional"}, "[27]": {"assay": "Half life in Sprague-Dawley rat at 50 mg/kg, po by LC-MS analysis", "type": "ADME, organism-based", "design": "dose 50 mg/kg, route oral", "conditions": "in vivo"}, "[28]": {"assay": "Oral bioavailability in Sprague-Dawley rat at 15 mg/kg by LC-MS analysis", "type": "ADME, organism-based", "conditions": "in vivo"}, "Staphylococcus aureus [29]": {"test_system": "Staphylococcus aureus", "assay": "Antibacterial activity against Staphylococcus aureus ATCC 19636 infected in mouse systemic infection model administered orally 1 hour after infection measured 48 hrs post-treatment relative to Linezolid", "type": "functional"}, "Staphylococcus aureus [30]": {"test_system": "Staphylococcus aureus", "assay": "Antibacterial activity against methicillin-resistant Staphylococcus aureus ATCC 33591 infected in NSA mouse neutropenic model administered orally 1 hour after infection measured 48 hrs post-treatment relative to Linezolid", "type": "functional"}, "[31]": {"assay": "Cmax in Sprague-Dawley rat at 15 mg/kg, iv by LC-MS analysis", "type": "ADME, organism-based", "design": "dose 15 mg/kg, route intravenous", "conditions": "in vivo"}, "[32]": {"assay": "AUC (0 to infinity) in Sprague-Dawley rat at 15 mg/kg, po by LC-MS analysis", "type": "ADME, organism-based", "design": "time infinity, dose 15 mg/kg, route oral", "conditions": "plasma"}, "[33]": {"assay": "Tmax in Sprague-Dawley rat at 15 mg/kg, po by LC-MS analysis", "type": "ADME, organism-based", "design": "dose 15 mg/kg, route oral", "conditions": "in vivo"}, "[34]": {"assay": "Cmax in Sprague-Dawley rat at 15 mg/kg, po by LC-MS analysis", "type": "ADME, organism-based", "design": "dose 15 mg/kg, route oral", "conditions": "in vivo"}, "[35]": {"assay": "Clearance in Sprague-Dawley rat at 15 mg/kg, po by LC-MS analysis", "type": "ADME, organism-based", "design": "dose 15 mg/kg, route oral", "conditions": "in vivo"}, "[36]": {"assay": "Clearance in Sprague-Dawley rat at 15 mg/kg, iv by LC-MS analysis", "type": "ADME, organism-based", "design": "dose 15 mg/kg, route intravenous", "conditions": "in vivo"}, "[37]": {"assay": "Half life in Sprague-Dawley rat at 15 mg/kg, po by LC-MS analysis", "type": "ADME, organism-based", "design": "dose 15 mg/kg, route oral", "conditions": "in vivo"}}, "data": [{"smiles": "CC(=O)NC[C@@H]1OC(=O)N2c3ccc(-c4ccc(N5CCOC5=O)nc4)cc3OC[C@@H]12", "values": [{"measurement": "fold change (FC)", "setting": "Streptococcus pneumoniae [1]", "value": 4}, {"measurement": "fold change (FC)", "setting": "Staphylococcus aureus [2]", "value": 8}, {"measurement": "half-life", "setting": "[3]", "value": 3.7, "unit": "h"}, {"measurement": "MIC", "setting": "Staphylococcus aureus [4]", "value": 2, "unit": "µg/mL"}, {"measurement": "AUC(0-inf)", "setting": "[5]", "value": 136, "unit": "µg·h/mL"}, {"measurement": "MIC", "setting": "[6]", "value": 1, "unit": "µg/mL"}, {"measurement": "MIC", "setting": "Enterococcus faecalis [7]", "value": 0.5, "unit": "µg/mL"}, {"measurement": "Tmax", "setting": "[8]", "value": 6, "unit": "h"}, {"measurement": "ED50", "setting": "Staphylococcus aureus [9]", "value": 11.3, "unit": "mg/kg"}, {"measurement": "fold change (FC)", "setting": "[10]", "value": 4}, {"measurement": "fold change (FC)", "setting": "Staphylococcus aureus [11]", "value": 4}, {"measurement": "fold change (FC)", "setting": "[12]", "value": 8}, {"measurement": "clearance", "setting": "[13]", "value": 1.28, "unit": "mL/min/kg"}, {"measurement": "MIC", "setting": "[14]", "value": 0.125, "unit": "µg/mL"}, {"measurement": "MIC", "setting": "Staphylococcus aureus [15]", "value": 0.25, "unit": "µg/mL"}, {"measurement": "MIC", "setting": "Streptococcus pneumoniae [16]", "value": 0.25, "unit": "µg/mL"}, {"measurement": "MIC", "setting": "Staphylococcus aureus [17]", "value": 0.125, "unit": "µg/mL"}, {"measurement": "MIC", "setting": "Enterococcus faecalis [18]", "value": 1, "unit": "µg/mL"}, {"measurement": "Cmax", "setting": "[19]", "value": 9000, "unit": "ng/mL"}, {"measurement": "AUC(0-inf)", "setting": "[20]", "value": 123, "unit": "µg·h/mL"}, {"measurement": "fold change (FC)", "setting": "Enterococcus faecalis [21]", "value": 4}, {"measurement": "ED50", "setting": "Staphylococcus aureus [22]", "value": 9.5, "unit": "mg/kg"}, {"measurement": "MIC", "setting": "Enterococcus faecium [23]", "value": 0.5, "unit": "µg/mL"}, {"measurement": "fold change (FC)", "setting": "Enterococcus faecium [24]", "value": 8}, {"measurement": "bioavailability", "setting": "[25]", "value": 18, "unit": "%"}, {"measurement": "fold change (FC)", "setting": "Enterococcus faecalis [26]", "value": 8}, {"measurement": "half-life", "setting": "[27]", "value": 4.7, "unit": "h"}]}, {"smiles": "CC(=O)NC[C@@H]1OC(=O)N2c3ccc(-c4ccc(C#N)nc4)cc3OC[C@@H]12", "values": [{"measurement": "bioavailability", "setting": "[28]", "value": 81, "unit": "%"}, {"measurement": "fold change (FC)", "setting": "Staphylococcus aureus [29]", "value": 4}, {"measurement": "fold change (FC)", "setting": "Staphylococcus aureus [30]", "value": 3}, {"measurement": "fold change (FC)", "setting": "Staphylococcus aureus [2]", "value": 8}, {"measurement": "Cmax", "setting": "[31]", "value": 7000, "unit": "ng/mL"}, {"measurement": "MIC", "setting": "Staphylococcus aureus [4]", "value": 2, "unit": "µg/mL"}, {"measurement": "MIC", "setting": "[6]", "value": 1, "unit": "µg/mL"}, {"measurement": "MIC", "setting": "Enterococcus faecalis [7]", "value": 0.5, "unit": "µg/mL"}, {"measurement": "ED50", "setting": "Staphylococcus aureus [9]", "value": 2.5, "unit": "mg/kg"}, {"measurement": "AUC(0-inf)", "setting": "[32]", "value": 66, "unit": "µg·h/mL"}, {"measurement": "fold change (FC)", "setting": "[12]", "value": 8}, {"measurement": "Tmax", "setting": "[33]", "value": 4, "unit": "h"}, {"measurement": "Cmax", "setting": "[34]", "value": 5000, "unit": "ng/mL"}, {"measurement": "MIC", "setting": "[14]", "value": 0.25, "unit": "µg/mL"}, {"measurement": "MIC", "setting": "Staphylococcus aureus [15]", "value": 0.125, "unit": "µg/mL"}, {"measurement": "MIC", "setting": "Streptococcus pneumoniae [16]", "value": 0.25, "unit": "µg/mL"}, {"measurement": "CL/F", "setting": "[35]", "value": 3.82, "unit": "mL/min/kg"}, {"measurement": "MIC", "setting": "Staphylococcus aureus [17]", "value": 0.25, "unit": "µg/mL"}, {"measurement": "clearance", "setting": "[36]", "value": 3.07, "unit": "mL/min/kg"}, {"measurement": "MIC", "setting": "Enterococcus faecalis [18]", "value": 1, "unit": "µg/mL"}, {"measurement": "ED50", "setting": "Staphylococcus aureus [22]", "value": "< 5", "unit": "mg/kg"}, {"measurement": "MIC", "setting": "Enterococcus faecium [23]", "value": 0.5, "unit": "µg/mL"}, {"measurement": "half-life", "setting": "[37]", "value": 5.5, "unit": "h"}, {"measurement": "fold change (FC)", "setting": "Enterococcus faecium [24]", "value": 8}, {"measurement": "fold change (FC)", "setting": "Enterococcus faecalis [26]", "value": 8}]}]}
